Measured values: patent US6835382B2, “Ii peptide therapeutics to enhance antigen presentation” (University of Massachusetts, priority 1996, dated 2004)
One block for each substance: values may come before it. Non-standard residues stand in square brackets, D forms with d. Cit = NC(=O)NCCC[C@H](N)C(=O)O; Orn = NCCC[C@H](N)C(=O)O

Legend:
[1] = test system: murine E^k MHC class II allele; assay: simultaneous assay, E^k allele (CH27 APC, TPc9.1 T hybridoma, THMCC82-103 or PGCC81-104); format: cell-based; conditions: for Times Baseline Response, Ek: Table 3, values reduced relative to E^d by a factor of 10
Experimental: (§1) Examples 1-4 (Tables 1-18) will be briefly considered in order to establish the concept of tolerance discussed above. These examples describe experimental results observed in the so-called “simultaneous” assay. In the simultaneous assay four principle components are cultured together for a 24 hour period. The components of this culture, which are added simultaneously, are: (a) an antigenic peptide characterized by the ability to bind specifically into the antigenic peptide binding groove of an MHC class II molecule, (b) mitomycin C-treated, MHC class II-positive antigen presenting cells (APC) bearing the MHC class II allele required for binding of the specific antigenic peptide, and presentation of the specific antigenic peptide to the antigenic peptide-specific T cell hybridoma, (c) an effector compound of the present invention, and (d) an MHC class II allele-restricted T cell hybridoma specific for the antigenic peptide and the MHC class II allele restricting its presentation. Following incubation of this primary culture, an aliquot of its supernatant is transferred into a second culture well for incubation with an interleukin-dependent lymphoblastoid cell line. The degree of stimulation of that second, indicator cell by the interleukins which had been released from the activated T cell hybridoma in the primary culture is measured by quantitating tritiated thymidine deoxyribose {[^3H]TdR} uptake into the DNA of the HT-2 indicator cells of that second culture.
(§2) In the “simultaneous assay” the four components of the assay are cultured together for a 24 h period. The components of this primary culture, added at the same time or simultaneously, are: (a) the antigenic peptide, (b) mitomycin C-treated, MHC class II-positive antigen presenting cells (APC) with the MHC class II allele required for binding of the specific antigenic peptide and its presentation to the antigenic peptide-specific T cell hybridoma, (c) an AE101 series effector peptide, and (d) MHC class II allele-restricted T cell hybridoma specific for the antigenic peptide and the MHC class II allele restricting its presentation. At the end of the incubation of this primary culture, an aliquot of its supernatant is transferred into a second culture well for incubation with an interleukin-dependent lymphoblastoid cell line. The degree of stimulation of that second, indicator cell by the interleukins which had been released from the activated T cell hybridoma in the primary culture is measured by quantitating tritiated thymidine deoxyribose {[^3H]TdR} uptake into the DNA of the HT-2 indicator cells of that second culture.
(§3) For these various assays, the following antigenic peptides were used: HEL11-25, hen egg lysozyme 11-25, AMKRHGLDNYRGYSL(A^d) (SEQ ID NO:5); HEL46-61, hen egg lysozyme 46-61, NTDGSTDYGILQINSR(Ak) (SEQ ID NO:6); HEL106-116, hen egg lysozyme 106-116, NAWVAWRNRCK (E^d) (SEQ ID NO:7); PGCC81-104, pigeon cytochrome c 81-104, […] (Ek) (SEQ ID NO:8), and THMCC82-103, tobacco hornworm moth cytochrome c 82-103, […] (Ek) (SEQ ID NO:9). AE101 series peptides were obtained from commercial sources. In general, the purity and composition of each peptide was confirmed by HPLC separation and mass spectrometry. The native protein antigens were HEL, hen egg lysozyme, and PGCC, pigeon cytochrome C. They were obtained from commercial sources.
(§4) For the experiments of these Examples, several T cell hybridomas, which are specific for certain antigenic peptides, were used. The TPc9.1 T hybridoma is specific for pigeon cytochrome C 81-104 peptide presented on the murine class II MHC allele E^k. The TPc9.1 hybridoma responds heteroclitically to tobacco hornworm moth cytochrome c 82-103 on E^k. The 3A9 T hybridoma is specific for hen egg lysozyme 46-61 on A^k. The 9.30.B2 hybridoma is specific for hen egg lysozyme 11-25 on A^d, and the G28.C9 hybridoma is specific for hen egg lysozyme 106-116 on E^d. […]

[2] = target: T1, murine E^d MHC class II allele (Mus musculus, UniProt P01904+P01915); assay: simultaneous assay, E^d allele (A20 APC, G28.C9 T hybridoma, HEL106-116; HT-2 [3H]TdR readout); format: cell-based; set-up: The A20 and CH27 B cell lymphoma lines express H-2^d and H-2^k alleles, respectively; endogenous in cells; host or cells: A20 B cell lymphoma (mitomycin C-treated or paraformaldehyde-fixed); conditions: for Times Baseline Response, Ed: Table 3, AE peptide 64 μM; for activity in simultaneous assay on E^d and E^k, in words: Tables 12 and 18
T1 sequence (P01904 26-255): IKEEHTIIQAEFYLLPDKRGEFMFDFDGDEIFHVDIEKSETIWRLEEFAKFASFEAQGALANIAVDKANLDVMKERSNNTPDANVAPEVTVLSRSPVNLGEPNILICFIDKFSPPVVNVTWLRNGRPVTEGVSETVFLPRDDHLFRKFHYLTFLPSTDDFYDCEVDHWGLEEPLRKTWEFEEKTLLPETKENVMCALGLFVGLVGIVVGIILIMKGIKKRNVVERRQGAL
T1 sequence (P01915 27-264 limits assumed): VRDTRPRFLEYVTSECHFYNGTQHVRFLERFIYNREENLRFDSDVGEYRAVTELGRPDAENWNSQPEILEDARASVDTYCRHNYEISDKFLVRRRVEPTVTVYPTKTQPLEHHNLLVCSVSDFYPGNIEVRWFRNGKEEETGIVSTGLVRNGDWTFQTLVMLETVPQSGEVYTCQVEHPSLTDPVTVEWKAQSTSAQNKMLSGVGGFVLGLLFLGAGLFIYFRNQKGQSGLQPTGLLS
Experimental: as §1, §2, §3, §4

HLA-DR1 molecules = assay: release of biotin-labeled hMBP(90-102) from HLA-DR1 without unlabeled antigenic peptide (assay I); format: binding, human; conditions: Table 36; AE101 series compound 64 μM; fraction of o.d. of positive control (PBS only = 1.0; negative control = 0.0)
[3] = Table 1, AE peptide 16 μM (second value), 0.075 μM THMCC82-103, supernatant 1:2
[4] = Table 1, AE peptide 64 μM (first value), 0.075 μM THMCC82-103, supernatant 1:2
[5] = Table 1, AE peptide 16 μM (second value), 0.4 μM HEL106-116, supernatant 1:4
[6] = Table 1, AE peptide 64 μM (first value), 0.4 μM HEL106-116, supernatant 1:4
[7] = AE peptide 64 μM, supernatant 1:4
[8] = Table 12, AE peptide 1 μM (fourth value), supernatant 1:4
[9] = Table 12, AE peptide 4 μM (third value), supernatant 1:4
[10] = Table 12, AE peptide 16 μM (second value), supernatant 1:4
[11] = Table 12, AE peptide 64 μM (first value), supernatant 1:4
[12] = Table 12, AE peptide 1 μM (fourth value), supernatant 1:2
[13] = Table 12, AE peptide 4 μM (third value), supernatant 1:2
[14] = Table 12, AE peptide 16 μM (second value), supernatant 1:2
[15] = Table 12, AE peptide 64 μM (first value), supernatant 1:2

Substance: Ac-YRMKLPKS-NH2 [AE112]
Times Baseline Response, E^k [1, 3]: 3.2
Times Baseline Response, E^k [1, 4]: 15.3
Times Baseline Response, E^d [2, 5]: 26.2
Times Baseline Response, E^d [2, 6]: 42.8

Substance: Ac-YRMKLPKSA-NH2 [AE111]
Times Baseline Response, E^k [1, 3]: 2.0
Times Baseline Response, E^k [1, 4]: 7.2
Times Baseline Response, E^d [2, 5]: 18.8
Times Baseline Response, E^d [2, 6]: 39.2

Substance: Ac-YRMKLPKSAA-NH2 [AE128]
Times Baseline Response, E^k ([1]; Table 10, AE peptide 64 μM, supernatant 1:2 (first value)): 51.9
Times Baseline Response, E^k ([1]; Table 10, AE peptide 64 μM, supernatant 1:4 (second value)): 58.6
Times Baseline Response, E^d ([2]; Table 10, AE peptide 16 μM (second value), supernatant 1:2): 29.5
Times Baseline Response, E^d ([2]; Table 10, AE peptide 64 μM (first value), supernatant 1:2): 33.0

Substance: Ac-[Cit]RMKLPK-NH2 [AE181]
Times Baseline Response, Ek [1, 7]: 11.5
Times Baseline Response, Ed ([2]; supernatant 1:4): 9.0

Substance: Ac-[Orn]RMKLPK-NH2 [AE180]
Times Baseline Response, Ek [1, 7]: 10.8
Times Baseline Response, Ed ([2]; supernatant 1:4): 12.6

activity in simultaneous assay on E^d and E^k, in words [2]: inactive
Substance: Ac-kplkmrl-NH2 [AE171]
Times Baseline Response, E^k [1, 8]: 1.9
Times Baseline Response, E^k [1, 9]: 1.4
Times Baseline Response, E^k [1, 10]: 2.0
Times Baseline Response, E^k [1, 11]: 3.6
Times Baseline Response, E^d [2, 12]: 1.4
Times Baseline Response, E^d [2, 13]: 1.4
Times Baseline Response, E^d [2, 14]: 1.5
Times Baseline Response, E^d [2, 15]: 1.3

activity in simultaneous assay on E^d and E^k, in words [2]: inactive
Substance: Ac-lrmklpk-NH2 [AE170]
Times Baseline Response, E^k [1, 8]: 1.7
Times Baseline Response, E^k [1, 9]: 2.1
Times Baseline Response, E^k [1, 10]: 2.4
Times Baseline Response, E^k [1, 11]: 2.8
Times Baseline Response, E^d [2, 12]: 1.3
Times Baseline Response, E^d [2, 13]: 1.3
Times Baseline Response, E^d [2, 14]: 1.2
Times Baseline Response, E^d [2, 15]: 1.1

Substance: KLPKSAKPVSQMR [AE103]
Times Baseline Response, E^k [1, 3]: 0.7, 0.7
Times Baseline Response, E^k [1, 4]: 0.7, 0.7
Relative Release (HLA-DR1 molecules): 0.01
Times Baseline Response, E^d [2, 5]: 1.3
Times Baseline Response, E^d [2, 6]: 3.4

Substance: PKSAKPVSQMR [AE104]
Times Baseline Response, E^k [1, 3]: 1.1
Times Baseline Response, E^k [1, 4]: 0.8
Relative Release (HLA-DR1 molecules): 0.02
Times Baseline Response, E^d [2, 5]: 0.9
Times Baseline Response, E^d [2, 6]: 2.6
